How the values were obtained:
human LTA4 hydrolase = human LTA4 hydrolase (Homo sapiens (Human), UniProt P09960); experiment: LTA4H Enzyme assay (peptidase, Arg-AMC cleavage); assay type: biochemical; conditions: LTA4H Enzyme 1 nM, Arg-AMC substrate 50 μM, room temperature 1 h, fluorescence
Experimental: The compounds of the invention are assessed for the ability to interact with human LTA4 hydrolase in an enzymatic assay that measures the ability of the enzyme to cleave the peptide bond of arginyl-aminomethylcoumarin (Arg-AMC). LTA4H Enzyme (1 nM final), Arg-AMC substrate (50 μM final), and compound are combined in a reaction buffer (50 mM Tris-HCl (pH 7.5), 100 mM KCl, 0.5% bovine serum albumin) at room temperature for 1 h. The formation of product is assessed by measuring the fluorescence of aminomethylcoumarin product (excitation wavelength 380 nm/emission wavelength 460 nm).

[1] = tested on: synthesis of LTB4 in human whole blood; experiment: LTB4 production inhibition assay in human whole blood (HWB); assay type: cell-based; conditions: heparinized human whole blood, 15 min at 37° C., Calcimycin 20 μM 30 min, plasma LTB4 by HTRF
Experimental: The compounds of the invention are additionally tested in a human whole blood (HWB) assay to determine their ability to inhibit the synthesis of LTB4 in a cellular system. Compounds are combined with heparinized human whole blood and incubated for 15 minutes at 37° C. Calcimycin (20 μM final, prepared in phosphate-buffered saline, pH 7.4) is then added and the mixture is incubated for another 30 minutes at 37° C. The samples are centrifuged for 5 min at low speed (1500×g) and the plasma layer is removed. Plasma LTB4 concentrations are then measured using an antibody-based homogenous time-resolved fluorescence method (CisBio, Bedford, Mass.).

human LTA4 hydrolase, sequence (P09960 whole entry): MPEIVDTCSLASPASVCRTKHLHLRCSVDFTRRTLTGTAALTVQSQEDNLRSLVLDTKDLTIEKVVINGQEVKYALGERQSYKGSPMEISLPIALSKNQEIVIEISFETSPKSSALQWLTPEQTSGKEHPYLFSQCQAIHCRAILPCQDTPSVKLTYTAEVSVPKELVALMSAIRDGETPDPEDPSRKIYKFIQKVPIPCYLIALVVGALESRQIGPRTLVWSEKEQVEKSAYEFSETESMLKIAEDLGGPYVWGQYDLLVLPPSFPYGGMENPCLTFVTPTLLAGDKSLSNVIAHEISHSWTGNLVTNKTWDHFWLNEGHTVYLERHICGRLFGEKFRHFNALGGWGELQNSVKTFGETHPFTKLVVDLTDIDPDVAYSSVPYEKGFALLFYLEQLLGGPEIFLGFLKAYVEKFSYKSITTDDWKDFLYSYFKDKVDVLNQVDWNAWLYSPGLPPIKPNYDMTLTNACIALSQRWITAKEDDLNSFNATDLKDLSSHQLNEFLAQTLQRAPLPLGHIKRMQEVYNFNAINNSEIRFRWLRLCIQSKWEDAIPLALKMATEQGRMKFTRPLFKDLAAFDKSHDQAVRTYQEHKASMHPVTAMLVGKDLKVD

CCOCC(=O)N1CCN(Cc2ccc3cc(Oc4ccc(-c5ccn[nH]5)cn4)ccc3n2)CC1 [Example 124, 2-Ethoxy-1-(4-{6-[5-(2H-pyrazol-3-yl)-pyridin-2-yloxy]-quinolin-2-ylmethyl}-piperazin-1-yl)-ethanone] was tested, and the IC50 (human LTA4 hydrolase) was 2.6 nM and the IC50 [1] was 420 nM.
For CN(C(=O)CO)[C@@H]1CCN(Cc2ccc3cc(Oc4ccc(-c5ccn[nH]5)cn4)ccc3n2)C1 [Example 98], the IC50 (human LTA4 hydrolase) was 0.72 nM and the IC50 [1] was 120 nM.
CC(C)(O)C(=O)N1CCN(Cc2ccc3cc(Oc4ccc(-c5ccn[nH]5)cn4)ccc3n2)CC1 [Example 125, 2-Hydroxy-2-methyl-1-(4-{6-[5-(2H-pyrazol-3-yl)-pyridin-2-yloxy]-quinolin-2-ylmethyl}-piperazin-1-yl)-propan-1-one] was tested, and the IC50 (human LTA4 hydrolase) was 1.2 nM and the IC50 [1] was 340 nM.
With O[C@H]1CCN(Cc2ccc3cc(Oc4ncc(-c5ccn[nH]5)cn4)ccc3c2)C1 [Example 46, (S)-1-{6-[5-(2H-Pyrazol-3-yl)-pyrimidin-2-yloxy]-naphthalen-2-ylmethyl}-pyrrolidin-3-ol] the IC50 (human LTA4 hydrolase) was 2.5 nM and the IC50 [1] was 230 nM.
Compound CC(C)OCC(=O)N1CCN(Cc2ccc3cc(Oc4ccc(-c5ccn[nH]5)cn4)ccc3n2)CC1 [Example 130, 2-Isopropoxy-1-(4-{6-[5-(2H-pyrazol-3-yl)-pyridin-2-yloxy]-quinolin-2-ylmethyl}-piperazin-1-yl)-ethanone] has an IC50 (human LTA4 hydrolase) of 2.5 nM and an IC50 [1] of 630 nM.
With CC(C)(C)C(=O)N1CCN(Cc2ccc3cc(Oc4ncc(-c5ccn[nH]5)cn4)ccc3c2)CC1 [Example 35, 2,2-Dimethyl-1-(4-{6-[5-(2H-pyrazol-3-yl)-pyrimidin-2-yloxy]-naphthalen-2-ylmethyl}-piperazin-1-yl)-propan-1-one] the IC50 (human LTA4 hydrolase) was 2.7 nM and the IC50 [1] was 950 nM.
Compound C[C@@H](O)C(=O)N1CCN(Cc2cn3cc(Oc4ccc(-c5ccn[nH]5)cc4)ccc3n2)CC1 [Example 94, (R)-2-Hydroxy-1-(4-{6-[4-(2H-pyrazol-3-yl)-phenoxy]-imidazo[1,2-a]pyridin-2-ylmethyl}-piperazin-1-yl)-propan-1-one] has an IC50 (human LTA4 hydrolase) of 0.87 nM and an IC50 [1] of 350 nM.
In the case of C[C@H](O)C(=O)N1CCN(CCC2COc3cc(Oc4ccc(-c5ccn[nH]5)cn4)ccc32)CC1 (stereo partly drawn) [Example 84, (S)-2-Hydroxy-1-[4-(2-{6-[5-(2H-pyrazol-3-yl)-pyridin-2-yloxy]-2,3-dihydro-benzofuran-3-yl}-ethyl)-piperazin-1-yl]-propan-1-one], the IC50 (human LTA4 hydrolase) is reported as 1.3 nM and the IC50 [1] is reported as 450 nM.
O=C1[C@@H](O)CCN1C1CCN(CCc2coc3cc(Oc4ccc(-c5ccn[nH]5)cn4)ccc23)CC1 [Example 73, (S)-3-Hydroxy-1-[1-(2-{6-[5-(2H-pyrazol-3-yl)-pyridin-2-yloxy]-benzofuran-3-yl}-ethyl)-piperidin-4-yl]-pyrrolidin-2-one] showed an IC50 (human LTA4 hydrolase) of 0.73 nM and an IC50 [1] of 220 nM.
Work on CC(=O)NC1CCN(Cc2coc3cc(Oc4ccc(-c5ccn[nH]5)cn4)ccc23)CC1 [Example 104, N-(1-{6-[5-(2H-Pyrazol-3-yl)-pyridin-2-yloxy]-benzofuran-3-ylmethyl}-piperidin-4-yl)-acetamide] yielded an IC50 (human LTA4 hydrolase) of 0.56 nM and an IC50 [1] of 150 nM.
With OC1CN(Cc2ccc3cc(Oc4ccc(-c5ccn[nH]5)cn4)ccc3c2)C1 [Example 1, 1-{6-[5-(2H-Pyrazol-3-yl)-pyridin-2-yloxy]-naphthalen-2-ylmethyl}-azetidin-3-ol] the IC50 (human LTA4 hydrolase) was 0.43 nM and the IC50 [1] was 140 nM.
O=C1[C@@H](O)CCN1C1CCN(Cc2ccc3cc(Oc4ncc(-c5ccn[nH]5)cn4)ccc3c2)CC1 [Example 29, (S)-3-Hydroxy-1-(1-{6-[5-(2H-pyrazol-3-yl)-pyrimidin-2-yloxy]-naphthalen-2-ylmethyl}-piperidin-4-yl)-pyrrolidin-2-one] gave an IC50 (human LTA4 hydrolase) of 1.8 nM and an IC50 [1] of 220 nM.
N#CCC(=O)N1CC2CCC(C1)N2Cc1ccc2cc(Oc3ccc(-c4ccn[nH]4)cn3)ccc2n1 [Example 50, 3-Oxo-3-(8-{6-[5-(2H-pyrazol-3-yl)-pyridin-2-yloxy]-quinolin-2-ylmethyl}-3,8-diaza-bicyclo[3.2.1]oct-3-yl)-propionitrile] showed an IC50 (human LTA4 hydrolase) of 0.69 nM and an IC50 [1] of 170 nM.
CN1CCC2(CCN(Cc3coc4cc(Oc5ccc(-c6ccn[nH]6)cn5)ccc34)CC2)C1=O [Example 110, 2-Methyl-8-{6-[5-(2H-pyrazol-3-yl)-pyridin-2-yloxy]-benzofuran-3-ylmethyl}-2,8-diaza-spiro[4.5]decan-1-one] showed an IC50 (human LTA4 hydrolase) of 0.22 nM and an IC50 [1] of 130 nM.
Work on O=C(N1CCN(Cc2ccc3cc(Oc4ccc(-c5ccn[nH]5)cn4)ccc3n2)CC1)C1(O)CC1 [Example 126, (1-Hydroxy-cyclopropyl)-(4-{6-[5-(2H-pyrazol-3-yl)-pyridin-2-yloxy]-quinolin-2-ylmethyl}-piperazin-1-yl)-methanone] yielded an IC50 (human LTA4 hydrolase) of 1 nM and an IC50 [1] of 250 nM.
For CO[C@H](C)C(=O)N1CCN(CCc2coc3cc(Oc4ccc(-c5ccn[nH]5)cn4)ccc23)CC1 [Example 78, (R)-2-Methoxy-1-[4-(2-{6-[5-(2H-pyrazol-3-yl)-pyridin-2-yloxy]-benzofuran-3-yl}-ethyl)-piperazin-1-yl]-propan-1-one], the IC50 (human LTA4 hydrolase) was 0.92 nM and the IC50 [1] was 190 nM.
COCC(=O)N1CC2CCC(C1)N2Cc1ccc2cc(Oc3ccc(-c4ccn[nH]4)cn3)ccc2n1 [Example 60, 2-Methoxy-1-(8-{6-[5-(2H-pyrazol-3-yl)-pyridin-2-yloxy]-quinolin-2-ylmethyl}-3,8-diaza-bicyclo[3.2.1]oct-3-yl)-ethanone] gave an IC50 (human LTA4 hydrolase) of 0.33 nM and an IC50 [1] of 110 nM.
Work on O=C1[C@@H](O)CCN1C1CCN(Cc2coc3cc(Oc4ccc(-c5ccn[nH]5)cn4)ccc23)CC1 [Example 109, (S)-3-Hydroxy-1-(1-{6-[5-(2H-pyrazol-3-yl)-pyridin-2-yloxy]-benzofuran-3-ylmethyl}-piperidin-4-yl)-pyrrolidin-2-one] yielded an IC50 (human LTA4 hydrolase) of 0.36 nM and an IC50 [1] of 140 nM.
With O=C(CO)N1CCN(Cc2ccc3cc(Oc4ccc(-c5ccn[nH]5)cn4)ccc3c2)CC1 [Example 7, 2-Hydroxy-1-(4-{6-[5-(2H-pyrazol-3-yl)-pyridin-2-yloxy]-naphthalen-2-ylmethyl}-piperazin-1-yl)-ethanone] the IC50 (human LTA4 hydrolase) was 0.4 nM and the IC50 [1] was 120 nM.
In the case of CC(=O)NC1CCN(Cc2ccc3cc(Oc4ncc(-c5ccn[nH]5)cn4)ccc3c2)CC1 [Example 28, N-(1-{6-[5-(2H-Pyrazol-3-yl)-pyrimidin-2-yloxy]-naphthalen-2-ylmethyl}-piperidin-4-yl)-acetamide], the IC50 (human LTA4 hydrolase) is reported as 1.8 nM and the IC50 [1] is reported as 270 nM.
N#CC1(C(=O)N2CCN(Cc3ccc4cc(Oc5ccc(-c6ccn[nH]6)cn5)ccc4n3)CC2)CCC1 [Example 146, 1-(4-{6-[5-(2H-Pyrazol-3-yl)-pyridin-2-yloxy]-quinolin-2-ylmethyl}-piperazine-1-carbonyl)-cyclobutanecarbonitrile] was tested, and the IC50 (human LTA4 hydrolase) was 3.4 nM and the IC50 [1] was 750 nM.
CC(=O)N1CCN(Cc2ccc3cc(Oc4ncc(-c5ccn[nH]5)cn4)ccc3c2)CC1 [Example 25, 1-(4-{6-[5-(2H-Pyrazol-3-yl)-pyrimidin-2-yloxy]-naphthalen-2-ylmethyl}-piperazin-1-yl)-ethanone] gave an IC50 (human LTA4 hydrolase) of 1.7 nM and an IC50 [1] of 520 nM.
CS(=O)(=O)N1CCN(Cc2ccc3cc(Oc4ccc(-c5ccn[nH]5)cn4)ccc3n2)CC1 [Example 66, 2-(4-Methanesulfonyl-piperazin-1-ylmethyl)-6-[5-(2H-pyrazol-3-yl)-pyridin-2-yloxy]-quinoline] was tested, and the IC50 (human LTA4 hydrolase) was 1.7 nM and the IC50 [1] was 430 nM.
In the case of CC(C)(O)CC(=O)N1CCN(Cc2ccc3cc(Oc4ccc(-c5ccn[nH]5)cn4)ccc3n2)CC1 [Example 122, 3-Hydroxy-3-methyl-1-(4-{6-[5-(2H-pyrazol-3-yl)-pyridin-2-yloxy]-quinolin-2-ylmethyl}-piperazin-1-yl)-butan-1-one], the IC50 (human LTA4 hydrolase) is reported as 3.9 nM and the IC50 [1] is reported as 570 nM.
In the case of CN(C(=O)CO)C1CCN(Cc2ccc3cc(Oc4ncc(-c5ccn[nH]5)cn4)ccc3c2)CC1 [Example 31, 2-Hydroxy-N-methyl-N-(1-{6-[5-(2H-pyrazol-3-yl)-pyrimidin-2-yloxy]-naphthalen-2-ylmethyl}-piperidin-4-yl)-acetamide], the IC50 (human LTA4 hydrolase) is reported as 1.5 nM and the IC50 [1] is reported as 270 nM.
With CC1(O)CN(Cc2ccc3cc(Oc4ncc(-c5ccn[nH]5)cn4)ccc3c2)C1 [Example 47, 3-Methyl-1-{6-[5-(2H-pyrazol-3-yl)-pyrimidin-2-yloxy]-naphthalen-2-ylmethyl}-azetidin-3-ol] the IC50 (human LTA4 hydrolase) was 1.9 nM and the IC50 [1] was 210 nM.
Work on CN(C(=O)CO)[C@H]1CCN(Cc2ccc3cc(Oc4ccc(-c5ccn[nH]5)cn4)ccc3c2)C1 [Example 20, 2-Hydroxy-N-methyl-N-((S)-1-{6-[5-(2H-pyrazol-3-yl)-pyridin-2-yloxy]-naphthalen-2-ylmethyl}-pyrrolidin-3-yl)-acetamide] yielded an IC50 (human LTA4 hydrolase) of 0.76 nM and an IC50 [1] of 150 nM.
Work on CC(C)(CO)C(=O)N1CCN(Cc2ccc3cc(Oc4ccc(-c5ccn[nH]5)cn4)ccc3n2)CC1 [Example 135, 3-Hydroxy-2,2-dimethyl-1-(4-{6-[5-(2H-pyrazol-3-yl)-pyridin-2-yloxy]-quinolin-2-ylmethyl}-piperazin-1-yl)-propan-1-one] yielded an IC50 (human LTA4 hydrolase) of 5.4 nM and an IC50 [1] of 610 nM.
For N#CC1(C(=O)N2CCN(Cc3ccc4cc(Oc5ccc(-c6ccn[nH]6)cn5)ccc4n3)CC2)CCCC1 [Example 147, 1-(4-{6-[5-(2H-Pyrazol-3-yl)-pyridin-2-yloxy]-quinolin-2-ylmethyl}-piperazine-1-carbonyl)-cyclopentanecarbonitrile], the IC50 (human LTA4 hydrolase) was 12 nM.
